Patent publication US20090042913A1, “Indolylalkylthienopyrimidylamines as modulators of the EP2 receptor” (priority 2007, published 2009)

Experiments:
[1] = system: cumulus-oocyte complexes (PGE2-induced cumulus expansion); assay: Cumulus expansion assay in vitro; format: cell-based, mice; conditions: in competition with PGE2
Experimental: Folliculogenesis is induced in immature female mice at an age of 14-18 days by a single dose (intraperitoneal) of 10 I.U. of PMSG (Pregnant Mare Serum Gonadotropin; Sigma G-4877, Lot 68H0909). 47-50 hours after the injection, the ovaries are removed and the cumulus-oocyte complexes are removed. The cumulus complex is not yet expanded at this stage.
The cumulus-oocyte complexes are then incubated with prostaglandin E2 (PGE2) (0.3 μM), vehicle control (ethanol) or test substances for 20-24 hours. Medium: alpha-MEM medium with 0.1 mM IBMX, pyruvates (0.23 mM) glutamines (2 mM), pen/strep 100 IU/ml pen. and 100 μg/ml strep. and HSA (8 mg/ml). Cumulus expansion is then established through the division into four stages (according to Vanderhyden et al. Dev Biol. 1990 August; 140(2):307-317).

[2] = target: T1, human prostaglandin E2 (subtype EP2) receptor (Homo sapiens, UniProt P43116); assay: cAMP agonism assay (cellular agonism test); format: cell-based; conditions: without PGE2
T1 construct: host or cells: cells in a cell culture plate
T1 sequence (P43116 whole entry): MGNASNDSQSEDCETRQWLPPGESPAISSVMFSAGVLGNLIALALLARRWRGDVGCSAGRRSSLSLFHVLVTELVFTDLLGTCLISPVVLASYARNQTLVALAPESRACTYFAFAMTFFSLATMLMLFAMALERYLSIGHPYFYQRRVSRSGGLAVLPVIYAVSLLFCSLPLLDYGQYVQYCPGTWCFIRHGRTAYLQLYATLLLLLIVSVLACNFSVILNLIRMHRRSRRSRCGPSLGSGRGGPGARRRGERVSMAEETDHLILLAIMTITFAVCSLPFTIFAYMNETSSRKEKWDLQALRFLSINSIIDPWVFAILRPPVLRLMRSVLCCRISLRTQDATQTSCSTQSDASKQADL
Experimental: (§1) The binding of PGE2 to the EP2 subtype of the human PGE2 receptor induces activation of membrane-associated adenylate cyclases and leads to the formation of cAMP. In the presence of the phosphodiesterase inhibitor IBMX, cAMP which has accumulated due to this stimulation and been released by cell lysis is employed in a competitive detection method. In this assay, the cAMP in the lysate competes with cAMP-XL665 for binding of an Eu cryptate-labelled anti-cAMP antibody.
(§2) The two signals are measured in a suitable measuring instrument with a time lag, i.e. after the background fluorescence has declined.
(§3) The substance solutions (0.75 μl) introduced into an assay plate and 30% DMSO are dissolved in 16 μl of a KRSB+IBMX stimulation solution (1× Krebs-Ringer Bicarbonate Buffer; Sigma-Aldrich # K-4002; including 750 μM 3-isobutyl-1-methylxanthine Sigma-Aldrich # 1-7018), and then 15 μl thereof are transferred into a media-free cell culture plate which has been washed with KRSB shortly beforehand.
After incubation at room temperature (RT; volume: ˜15 μl) for 60 minutes, the reaction is then stopped by adding 5 μl of lysis buffer and incubated at RT for a further 20 min (volume: ˜20 μl). The cell lysate is then transferred into a measuring plate and measured in accordance with the manufacturer's instructions (cyclic AMP kit Cisbio International # 62AMPPEC).

[3] = target: T1, human prostaglandin E2 (subtype EP2) receptor; assay: cAMP antagonism assay (HTRF cAMP detection, PGE2-stimulated cells); format: cell-based; conditions: cAMP antagonism test, in presence of PGE2
Experimental: as §1, §2
as §3, with “I-7018),” for “1-7018),”
After preincubation at room temperature (RT) for 30 minutes, 5 μl of a 4×PGE2 solution (11 nM) are added, and incubation is carried out in the presence of the agonist at RT for a further 60 min (volume: ˜20 μl) before the reaction is then stopped by adding 5 μl of lysis buffer and incubated at RT for a further 20 min (volume: ˜25 μl). The cell lysate is then transferred into a measuring plate and measured in accordance with the manufacturer's information (cyclic AMP kit Cisbio International # 62AMPPEC).

| SMILES | suppression of cumulus expansion ([1]; 100-200 μM) | effect in the cellular agonism test [2] | IC50 [3] [µM] | suppression of cumulus expansion ([1]; 10 μM) [%] |
| --- | --- | --- | --- | --- |
| CC(C)Oc1ccc2c(=O)c3cc(C(=O)O)ccc3oc2c1 [AH 6809, reference compound] | approx. 30% | – | – | – |
| Cc1[nH]c2c(F)ccc(C)c2c1CCNc1ncnc2cc(-c3cccc(F)c3)sc12 [Example 22, [2-(7-fluoro-2,4-dimethyl-1H-indol-3-yl)ethyl]-[6-(3-fluorophenyl)thieno[3,2-d]pyrimidin-4-yl]amine] | – | no inhibition | 0.111 | 45 |
| Cc1[nH]c2c(F)ccc(C)c2c1CCNc1ncnc2cc(-c3cc(F)ccc3F)sc12 [Example 55, [6-(2,5-difluorophenyl)thieno[3,2-d]pyrimidin-4-yl]-[2-(7-fluoro-2,4-dimethyl-1H-indol-3-yl)ethyl]amine] | – | – | 0.097 | – |
| Cc1[nH]c2c(F)ccc(C)c2c1CCNc1ncnc2cc(-c3ccc(C(F)(F)F)cc3)sc12 [Example 30, [2-(7-fluoro-2,4-dimethyl-1H-indol-3-yl)ethyl]-[6-(4-trifluoromethylphenyl)thieno[3,2-d]pyrimidin-4-yl]amine] | – | – | 0.101 | – |
